Consider 16 compounds from patent US6071905A, “Biologically active substance on the basis of tetracyclic nitrogen heterocycles of pyrimidine row” (Natural Drug Sciences, LLC, priority 1998, dated 2000).

Data set [1] concerns herpes virus I of the type (VPG-1/Leningrad/248/88). Kind of data set: antiviral action on herpes virus in Vero cells (cytopathogenic action). The conditions noted are these: 36 hours, 38° C. The data set is classed as cell-based.
The subject of the next data set is M. tuberculosis H37Rv. Briefly: series culture (dilution) method, MIC, M. tuberculosis H37Rv. It counts as cell-based. The following applies: Mycobacterium tuberculosis, 72 hour cultivation, 37° C., Soton medium with 10% horse serum. The method, then:
In order to determine antimicrobial activity standard strains Mycobacterium smegmatis ATCC607 and Mycobacterium tuberculosis H37RV were used which are sensitive to all antimicrobial compounds.
The evaluation of antimicrobial action was performed with the method of series culture (5). M. smegmatis ATCC607 for seeding was grown on liquid synthetic medium N-1.
The compounds were dissolved in dimethyl sulfoxide (DMSO) and tittered in medium N-1, so that this compound was contained in separate test tubes with the medium in concentration of 200-0.025 mg/l. The concentration of the compound in the medium of neighboring test tubes was differed twice. For the control, DMSO which was tittered the same as the compound, was utilized. Test strain of bacteria was added in the quantity 1-2×10^6 ml. The result was considered after 72 hour cultivation of test tubes at 37° C.
For M tuberculosis H37Rv conditions of experiment were identical, with the exception of the fact that bacteria were grown on the Soton medium which contains 10% horse serum, and density of microbial suspension during seeding was (5.0×10^6) in ml.
As the control, in both cases known tuberculostatic compounds were utilized.

The test system of a further data set is M. smegmatis ATCC607. Briefly: series culture (dilution) method, MIC, M. smegmatis ATCC607. The data set is classed as cell-based, Mycobacterium smegmatis. The following applies: Mycolicibacterium smegmatis, 72 hour cultivation, 37° C., medium N-1.
For a further data set, the system named is M. avium 84. Briefly: action on pathogenic mycobacteria from patients, Lowenstein-Jensen medium, M. avium 84. The conditions noted are these: title: concentration of compound 10.0 g/l; 30 days. The data set is classed as cell-based, Mycobacterium avium.
The subject of data set [2] is primary culture of human lymphocytes. Briefly: interferon-inducing activity in primary culture of human lymphocytes (immuno-ferment assay). The data set is classed as cell-based. The following applies: 24 hours of incubation.
In another data set the test system is C. trachomatis D323. Briefly: action on Chlamydia trachomatis in cell culture (McCoy and L929). The data set is classed as cell-based. The following applies: 48 hours.
The subject of a further data set is Vero. Kind of data set: control of compounds (toxicity) on Vero cell culture. The data set is classed as cell-based.
The next data set relates to M. bovis bovinus 8. The data set is classed as in vivo, M. bovis bovinus 8; no-breed male mice. The conditions noted are these: for Coefficient of lung mass / Index of damage lungs / Perished animals: 42 day after infection; for Coefficient of lung mass / Index of damage lungs / Seeding M.tub.: dose not given; for Perished animals: tested compounds orally (10, 20 and 30 mg/kg), streptomycin intramuscularly; for Seeding M.tub.: from spleen, CFU per 100 mg.

Another data set can be described thus: in vivo. The following applies: mouse.

The structures appear in SMILES notation. ≈ marks a conversion by molar mass, not a printed value. Some results are limits rather than exact numbers.

On to `Nc1nc2c(ncn2COCCO)c(=O)[nH]1` [Acyclovir, reference compound], for which the “number of unchanged cells in 100 fields” value in data set [1] (10 mg/l) was 8000.
Regarding `CC[C@@H](CO)NCCN[C@@H](CC)CO` [Ethambutol, reference compound], the MIC against M. tuberculosis H37Rv and against M. smegmatis ATCC607 was 5 µg/mL (≈ 24.5 µM) throughout.
Regarding `NNC(=O)c1ccncc1` [Isoniazid, hydrazide of izonicotinic acid, reference compound], the minimum inhibitory concentration (MIC) came to 0.1 µg/mL (≈ 0.729 µM) in the data set with M. tuberculosis H37Rv and 1.5 µg/mL (≈ 10.9 µM) against M. smegmatis ATCC607. Besides, in the data set with M. avium 84, the “antimicrobial action, M. avium 84” value is listed as “growth”.
Take `CC1COc2c(N3CCN(C)CC3)c(F)cc3c(=O)c(C(=O)O)cn1c23` (centres unmarked) [Ofloxacin, reference compound]: the MIC against M. tuberculosis H37Rv and against M. smegmatis ATCC607 was 0.5 µg/mL (≈ 1.38 µM) throughout.
Take `O=c1c2cc([N+](=O)[O-])cc(Br)c2oc2nc3n(c(=O)c12)CCCS3` [R1=Br, R2-NO2, 1-bromo-3-nitro-5-oxo-5H-[1]-benzopyrano-[5,6-b]-4-oxo-4H-[1,2]-pyrimido-1,4,5,6-tetrahydro-1,3-thiazine]: the MIC worked out at 25 µg/mL (≈ 60.9 µM) against M. tuberculosis H37Rv and 100 µg/mL (≈ 244 µM) against M. smegmatis ATCC607.
On to `O=c1c2cc([N+](=O)[O-])cc(Cl)c2oc2nc3n(c(=O)c12)CCCS3` [R1=Cl, R2=NO2, 1-chloro-3-nitro-5-oxo-5H-[1]-benzopyrano-[5,6-b]-4-oxo-4H-[1,2]-pyrimido-1,4,5,6-tetrahydro-1,3-thiazine], for which the MIC stood at 50 µg/mL (≈ 137 µM) in the data set on M. tuberculosis H37Rv and 100 µg/mL (≈ 273 µM) in the data set on M. smegmatis ATCC607. The “Content of IFN in induction mixture” value turned out to be 3.6 ± 0.5 ME/3*10^4 limph./ml in data set [2] (1 μg/ml) and 18 ± 1.6 ME/3*10^4 limph./ml in data set [2] (10 μg/ml).
Take `O=c1c2cc(Br)ccc2oc2nc3n(c(=O)c12)CCCS3` [R1=H, R2=Br, 3-bromo-5-oxo-5H-[1]-benzopyrano-[5,6-b]-4-oxo-4H-[1,2]-pyrimido-1,4,5,6-tetrahydro-1,3-thiazine]: the MIC in the data set with M. tuberculosis H37Rv was 25 µg/mL (≈ 68.5 µM); in the data set on M. smegmatis ATCC607 it was 50 µg/mL (≈ 137 µM). The “Content of IFN in induction mixture” value is given as 14 ± 0.5 ME/3*10^4 limph./ml in [2] (1 μg/ml), 84 ± 2.5 ME/3*10^4 limph./ml in data set [2] (10 μg/ml) and 192 ± 1.6 ME/3*10^4 limph./ml in [2] (100 μg/ml). Moreover, the “Number of unchanged cells” value in the data set with C. trachomatis D323 (100 mg/l) is reported as 7.000.
`O=c1c2cc(Cl)ccc2oc2nc3n(c(=O)c12)CCCS3` [R1=H, R2=Cl, 3-chloro-5-oxo-5H-[1]-benzopyrano-[5,6-b]-4-oxo-4H-[1,2]-pyrimido-1,4,5,6-tetrahydro-1,3-thiazine]: the MIC against M. tuberculosis H37Rv and with M. smegmatis ATCC607 was 10 µg/mL (≈ 31.2 µM) in each case.
With `O=c1c2cc([N+](=O)[O-])ccc2oc2nc3n(c(=O)c12)CCCS3` [R1=H, R2=NO2, 3-nitro-5-oxo-5H-[1]-benzopyrano-[5,6-b]-4-oxo-4H-[1,2]-pyrimido-1,4,5,6-tetrahydro-1,3-thiazine], the MIC against M. tuberculosis H37Rv amounted to 50 µg/mL (≈ 151 µM); against M. smegmatis ATCC607, 100 µg/mL (≈ 302 µM). Also, the “number of unchanged cells in 100 fields” value in [1] (10 mg/l) is listed as 6000. For the same compound, the “toxicity of compounds to cells” value with Vero (50 mg/l) and in the data set with Vero (100 mg/l) was “toxic” throughout. Further, the “Content of IFN in induction mixture” value is 4.2 ± 0.8 ME/3*10^4 limph./ml in data set [2] (1 μg/ml), 20 ± 1.2 ME/3*10^4 limph./ml in [2] (10 μg/ml) and 48 ± 1.2 ME/3*10^4 limph./ml in data set [2] (100 μg/ml).
On to `COc1ccc2oc3nc4n(c(=O)c3c(=O)c2c1)CCCS4` [R1=H, R2=OCH3, 3-methoxy-5-oxo-5H-[1]-benzopyrano-[5,6-b]-4-oxo-4H-[1, 2]-pyrimido-1,4,5,6-tetrahydro-1,3-thiazine], for which the MIC with M. tuberculosis H37Rv turned out to be 50 µg/mL (≈ 158 µM); with M. smegmatis ATCC607 it was 100 µg/mL (≈ 316 µM).
As to `O=c1c2cc(O)ccc2oc2nc3n(c(=O)c12)CCCS3` [R1=H, R2=OH, 3-hydroxy-5-oxo-5H-[1]-benzopyrano-[5,6-b]-4-oxo-4H-[1,2]-pyrimido-1,4,5,6-tetrahydro-1,3-thiazine], the MIC is 50 µg/mL (≈ 165 µM) against M. tuberculosis H37Rv and 100 µg/mL (≈ 331 µM) with M. smegmatis ATCC607.
With `O=c1c2cc(Br)cc(Br)c2oc2nc3n(c(=O)c12)CCCS3` [R1=R2=Br, 1,3-dibromo-5-oxo-5H-[1]-benzopyrano-[5,6-b]-4-oxo-4H-[1,2]-pyrimido-1,4,5,6-tetrahydro-1,3-thiazine], the minimal inhibitory concentration (MIC) in the data set on M. tuberculosis H37Rv was 0.1 µg/mL (≈ 0.225 µM). The compound also gave an MIC in the data set with M. smegmatis ATCC607 of 0.1 µg/mL (≈ 0.225 µM). Further, in the data set on M. bovis bovinus 8, the “Coefficient of lung mass” value came out at 2.30 con. units, the “Index of damage lungs” value was determined as 2.3 con. unit, the Perished animals is on record as 0% and the “Seeding M.tub.” value came to 180 CFU. The “Content of IFN in induction mixture” value in data set [2] (1 μg/ml) worked out at 4.0 ± 0.5 ME/3*10^4 limph./ml. Further, the “Content of IFN in induction mixture” value in [2] (10 μg/ml) is listed as 23 ± 1.0 ME/3*10^4 limph./ml. The “Content of IFN in induction mixture” value in data set [2] (100 μg/ml) is recorded as 47 ± 0.8 ME/3*10^4 limph./ml. The median lethal dose (LD50) at 336 h in “in vivo” is over 1500 mg/kg.
Compound `O=c1c2cc(Cl)cc(Cl)c2oc2nc3n(c(=O)c12)CCCS3` [R1=R2=Cl, 1,3-dichloro-5-oxo-5H-[1]-benzopyrano-[5,6-b]-4-oxo-4H-[1,2]-pyrimido-1,4,5,6-tetrahydro-1,3-thiazine] had an MIC against M. tuberculosis H37Rv of 0.3 µg/mL (≈ 0.845 µM). The MIC in the data set with M. smegmatis ATCC607 was determined as 1 µg/mL (≈ 2.82 µM). Besides, in the data set with M. bovis bovinus 8, the “Coefficient of lung mass” value was 2.42 con. units, the “Index of damage lungs” value amounted to 2.5 con. unit, the Perished animals is given as 0% and the “Seeding M.tub.” value is 195 CFU. Further, the LD50 at 336 h in “in vivo” is over 1500 mg/kg.
With `O=c1c2ccccc2oc2nc3n(c(=O)c12)CCCS3` [R1=R2=H, 5-oxo-5H-[1]-benzopyrano-[5,6-b]-4-oxo-4H-[1,2]-pyrimido-1,4,5,6-tetrahydro-1,3-thiazine], the MIC against M. tuberculosis H37Rv was found to be 0.6 µg/mL (≈ 2.1 µM); with M. smegmatis ATCC607, 0.3 µg/mL (≈ 1.05 µM). Besides, the entries for the “number of unchanged cells in 100 fields” value in data set [1] (10 mg/l) and in data set [1] (50 mg/l) were 3000 and 6000, respectively. The “toxicity of compounds to cells” value in the data set on Vero (100 mg/l) is listed as “toxic”. Moreover, in the data set with C. trachomatis D323 (10 mg/l), the “Number of unchanged cells” value came to 7.200. In “in vivo”, this compound showed an LD50 at 336 h of over 1500 mg/kg.
Regarding `CO[C@H]1/C=C/O[C@@]2(C)Oc3c(C)c(O)c4c(O)c(cc(O)c4c3C2=O)NC(=O)/C(C)=C\C=C\[C@H](C)[C@H](O)[C@@H](C)[C@@H](O)[C@@H](C)[C@H](OC(C)=O)[C@@H]1C` [Rifamycin, reference compound], the values for the MIC against M. tuberculosis H37Rv and in the data set on M. smegmatis ATCC607 were 0.05 µg/mL (≈ 0.0717 µM) and 0.25 µg/mL (≈ 0.358 µM), respectively. Further, the “antimicrobial action, M. avium 84” value in the data set on M. avium 84 was “growth”.
On to `[H]/N=C(/N)N[C@H]1[C@H](O)[C@@H](O)[C@H](O[C@@H]2O[C@@H](C)[C@](O)(C=O)[C@H]2O[C@@H]2O[C@@H](CO)[C@H](O)[C@@H](O)[C@@H]2NC)[C@@H](N/C(N)=N\[H])[C@@H]1O` [Streptomycin, reference compound], for which the MIC against M. tuberculosis H37Rv is 0.2 µg/mL (≈ 0.344 µM). The same compound came in with an MIC with M. smegmatis ATCC607 of 0.15 µg/mL (≈ 0.258 µM). The “antimicrobial action, M. avium 84” value in the data set with M. avium 84 is recorded as “growth”. In the data set on M. bovis bovinus 8, the “Coefficient of lung mass” value was 2.47 con. units, the “Index of damage lungs” value is 2.45 con. unit, the Perished animals is on record as 0% and the “Seeding M.tub.” value amounted to 200 CFU.
